Assay results as given in patent US5578622A, “Isothiazole derivatives and their uses” (Asamura Patent Office, priority 1994, dated 1996).

How the values were obtained:
Aspergillus niger = assay: Test for wood rotting-preventing effect (mycelium growth inhibition on malt extract agar); assay type: cell-based; conditions: 28° C.±2° C., 2 to 10 days, read-out: Rotting preventing effect (mycelium growth-inhibitory rate), ASN
Description: (§1) The following fungi were cultured in agar media, respectively, and mycelial disks on the media were stamped out together with the agar using a cork borer of 4 mm in diameter. The resulting mycelial disks on agar were used as an inoculum. Each test compound of 50 ppm was added to a malt extract agar medium and added in parts to Petri dishes. The above prepared inoculum was put on the Petri dishes and cultured at 28° C.±2° C. Two to ten days after inoculation, the diameter of the mycelial disk of each fungus was measured, and the mycelium growth-inhibitory rate was obtained according to the following equation. [formula] The mycelium growth-inhibitory rate (%) is indicated by the following symbols as a fungicidal effect on each fungus, and the results are shown in Table 2. | ASN: Aspergillus niger

[1] = tested on: Trichophyton mentagrophytes IFO 5810; assay: In vitro antimicrobial activity on Trichophyton mentagrophytes; assay type: cell-based; set-up: key: A: Fungus is not observed at all with the naked eye.; B: Presence of fungus is slightly observed on shaking the test tube.; C: Fungus of about less than one-fourth that of the DMSO control group is observed with the naked eye.; Fungus of about less than half that of the DMSO control group is observed with the naked eye; conditions: 10 (ppm); SGB, 27° C., 7 days
Description: 3-3 In vitro antimicrobial activity on Trichophyton mentagrophytes To Trichophyton mentagrophytes IFO 5810 precultured at 27° C. for 2 to 3 weeks on a Sabouraud's glucose agar (SGA) slant medium was added a sterilized physiological salt solution containing 0.1% (W/V) Tween 80. After conidia were made free from the solution, the solution was filtered through a sterilized two-sheet gauze to remove the mycelium mass. The number of the conidia in the resulting suspension was counted with a globulimeter and adjusted so as to be 1×10^6 conidia/ml with a sterilized physiological salt solution containing 0.1%(W/V) Tween 80. This solution was used as an inoculum solution. Thereafter, 0.1 ml of this solution and 0.1 ml of the dimethyl sulfoxide (DMSO) solution of the test compound were added to 9.8 ml of Sabouraud's glucose broth (SGB), and shake-cultured at 27° C. for 7 days.

[2] = tested on: Candida albicans IFO 1270; assay: In vitro antimycotic activity on Candida albicans; assay type: cell-based; conditions: IFO1270, 10 (ppm), SGB, 37° C., 48 hours, turbidity at 650 nm, read-out: Antimycotic activity (growth inhibitory rate), C.albicans
Description: 3-1 In vitro antimycotic activity on Candida albicans
Candida albicans IFO 1270 pre-cultured on a Sabouraud's glucose agar (SGA) plate medium at 37° C. […] was suspended in a sterilized physiological salt solution. The number of fungi in the resulting suspension was counted with a globulimeter, and adjusted so as to be 1×10^7 cell/ml with a sterilized physiological salt solution. This solution was used as an inoculum solution. Thereafter, 0.1 ml of this solution and 0.1 ml of a dimethyl sulfoxide (DMSO) solution of the test compound were added to 9.8 ml of Sabouraud's glucose broth (SGB), and shake-cultured at 37° C. for 48 hours. After culture, the medium turbidity was measured at 650 nm, and the growth-inhibitory rate of the fungus was calculated according to the following equation.
Growth inhibitory rate (%)=(1-W/Y)×100
Y: Medium turbidity of DMSO control group
W: Medium turbidity of test compound group
From this inhibitory rate, the antimycotic activity was shown by the symbols A to D. The test results of the test compounds are shown in Table 4.

Tyromyces palustris = assay: Test for wood rotting-preventing effect (mycelium growth inhibition on malt extract agar); assay type: cell-based; conditions: 28° C.±2° C., 2 to 10 days, read-out: Rotting preventing effect (mycelium growth-inhibitory rate), TYP
Description: as §1, with “TYP: Tyromyces palustris” for “ASN: Aspergillus niger”

Trichoderma viride = assay: as above; assay type: cell-based; conditions: 28° C.±2° C., 2 to 10 days, read-out: Rotting preventing effect (mycelium growth-inhibitory rate), TRV
Description: as §1, with “TRV: Trichoderma viride” for “ASN: Aspergillus niger”

[3] = tested on: Aspergillus fumigatus TIMM 0063; assay: In vitro antimycotic activity on Aspergillus fumigatus; assay type: cell-based; conditions: TIMM0063, 10 (ppm), Casitone agar, 37° C., 48 hours, read-out: Antimycotic activity (growth inhibitory rate), A.fumigatus
Description: 3-2 In vitro antimycotic activity on Aspergillus fumigatus.
To Aspergillus fumigatus TIMM 0063 precultured at 37° C. for 48 hours on a potato dextrose agar (PDA) slant medium was added a sterilized physiological salt solution containing 0.1%(W/V) Tween 80. After conidia were made free from the solution, the solution was filtered through a sterilized two-sheet gauze to remove the mycelium mass. The number of the conidia in the resulting suspension was counted with a globulimeter and adjusted so as to be 1×10^5 conidia/ml with a sterilized physiological salt solution containing 0.1%(W/V) Tween 80. This solution was used as an inoculum solution. Casitone agar plate medium containing the DMSO solution of the test compound in a rate of 1% (V/V) was inoculated with the inoculum solution at four places thereof with a microplanter, and cultured with the medium allowed to stand at 37° C. for 48 hours. After culture, the diameter of the mycelium disks cultivated at the four inoculated parts was measured, and its mean value was obtained. The growth inhibitory rate was calculated according to the following equation, and the antimycotic activity was shown in the same manner as in Test Example 3-1.
Growth inhibitory rate (%)=(1-W'/Y')×100
Y': Diameter of mycelium disk of DMSO control group
W': Diameter of mycelium disk of test compound group

Rhizopus nigricans = assay: Test for wood rotting-preventing effect (mycelium growth inhibition on malt extract agar); assay type: cell-based; conditions: Rhizopus stolonifer, 28° C.±2° C., 2 to 10 days, read-out: Rotting preventing effect (mycelium growth-inhibitory rate), RHN
Description: as §1, with “RHN: Rhizopus nigricans” for “ASN: Aspergillus niger”

[4] = tested on: Gibberella fujikuroi ("Bakanae" disease of rice); assay: Test for rice seed-disinfecting effect; assay type: in vivo; conditions: Fusarium fujikuroi, 504 h, seed immersion 25° C. 24 hours, three weeks after treatment, read-out: Controlling effect (control of disease), "Bakanae" disease of rice
Description: 2-1 Test for rice seed-disinfecting effect
Unhulled rice infected with Gibberella fujikuroi ("Bakanae" disease of rice) was immersed in a test compound adjusted to 1000 ppm at 25° C. for 24 hours. Water was lightly swished off the seed, which was then sowed and germinated for two days. Three weeks after treatment with the solution containing the compound, the rate of the infected seedlings was examined, and the control of disease was calculated by comparison with that of the untreated plot. The control of disease was shown as a controlling effect on the basis of the following standard.

Rhizoctonia solani = assay: Test for controlling effect on sheath blight of rice; assay type: in vivo; conditions: 120 h, 200 ppm spray, 24 hours after inoculation, rice 4-leaf stage, five days after inoculation, read-out: Controlling effect (control of disease), Sheath blight of rice
Description: 2-3 Test for controlling effect on sheath blight of rice (Rhizoctonia solani) Rice seedlings at the 4-leaf stage were inoculated with the mycelium of sheath blight of rice (Rhizoctonia solani). After 24 hours, a test medicine solution adjusted to 200 ppm was sprayed onto the seedlings. After air-drying, the seedlings were placed in a humid room for 24 hours where the temperature was kept at 28° C. and humidity was kept at 98%. Thereafter, the seedlings were transferred to a greenhouse, and five days after inoculation, the degree of infected area was examined. The control of disease was calculated by comparison with that in the untreated plot. The control of disease is shown as a controlling effect in the same manner as in Test Example 2-1.

[5] = tested on: Pseudoperonospora cubensis; assay: Test for controlling effect on downy mildew of cucumber; assay type: in vivo; conditions: 168 h, 200 ppm spray, one day before inoculation, cucumber 2-leaf stage, read-out: Controlling effect (control of disease), Downy mildew of cucumber
Description: 2-2 Test for controlling effect on downy mildew of cucumber (Pseudoperonospora cubensis) A test compound adjusted to 200 ppm was sprayed onto cucumber at the 2-leaf stage cultivated in pots. After one day, the cucumber was inoculated by spraying the zoospore suspension of Pseudoperonospora cubensis. After inoculation, the cucumber was placed in a 25° C.-humid room for 1 day and then in a greenhouse for 6 days. Thus, the cucumber was made to be infected with downy mildew. The control of disease of the test compound is calculated by comparing the degree of infection of each leaf with that in the untreated plot. The control of disease is shown as a controlling effect in the same manner as in Test Example 2-1.

| SMILES | inhibition at 50 ppm (Aspergillus niger) | Antimycotic activity (degree of growth, naked eye), T.mentagrophytes [1] | inhibition of growth at 10 µg/mL [2] | inhibition at 50 ppm (Tyromyces palustris) | inhibition at 50 ppm (Trichoderma viride) | inhibition of growth at 10 µg/mL [3] | inhibition at 50 ppm (Rhizopus nigricans) | pest or weed control at 1000 ppm [4] | pest or weed control at 200 ppm (Rhizoctonia solani) | pest or weed control at 200 ppm [5] |
| --- | --- | --- | --- | --- | --- | --- | --- | --- | --- | --- |
| CCOc1snc(OCC#CI)c1C#N [Compound 22] | 95 to 100% | A | 100% | 95 to 100% | 95 to 100% | 100% | 95 to 100% | – | – | – |
| CCSc1snc(OCCC#CI)c1C#N [Compound 71] | – | A | 100% | – | – | 100% | – | – | – | – |
| CC(C)COc1snc(OCC#CI)c1C#N [Compound 29] | – | A | 100% | – | – | 100% | – | – | – | – |
| N#Cc1c(OC(F)F)nsc1OCC#CI [Compound 50] | – | A | 100% | – | – | 100% | – | 95 to 100% | 95 to 100% | 95 to 100% |
| N#Cc1c(OCOCC#CI)nsc1SCOCC#CI [Compound 141] | – | A | 100% | – | – | 100% | – | – | – | – |
| CC(C)Oc1nsc(OCCC#CI)c1C#N [Compound 83] | – | A | 100% | – | – | 100% | – | – | – | – |
| N#Cc1c(SC(F)F)nsc1SCOCC#CI [Compound 138] | 95 to 100% | A | 100% | 95 to 100% | 95 to 100% | 100% | 95 to 100% | – | – | – |
| CCOCCSc1snc(OCC#CI)c1C#N [Compound 16] | 80 to 94% | A | 100% | 95 to 100% | 95 to 100% | 100% | 80 to 94% | – | – | – |
| CC(C)Oc1nsc(SCOCC#CI)c1C#N [Compound 56] | – | A | 100% | – | – | 100% | – | – | – | – |
| CN1CCN(c2snc(OCC#CI)c2C#N)CC1 [Compound 36] | 80 to 94% | A | 100% | 95 to 100% | 95 to 100% | 100% | 80 to 94% | – | – | – |
| CC(C)Sc1snc(OCOCC#CI)c1C#N [Compound 88] | – | A | 100% | – | – | 100% | – | – | – | – |
| CC(C#CI)OCOc1nsc(SC(F)F)c1C#N (stereo not drawn) [Compound 111] | 95 to 100% | A | 100% | 95 to 100% | 95 to 100% | 100% | 95 to 100% | – | – | – |
| CC(OCC#CI)Oc1nsc(N(C)C)c1C#N (stereo not drawn) [Compound 123] | – | A | 100% | – | – | 100% | – | – | – | – |
| C=CCOc1nsc(SCOCC#CI)c1C#N [Compound 57] | 95 to 100% | A | 100% | 95 to 100% | 95 to 100% | 100% | 95 to 100% | – | – | – |
| CCSc1snc(OCOC(C)(C)C#CI)c1C#N [Compound 101] | – | A | 100% | – | – | 100% | – | – | – | – |
